For this assay, the target named is GABA-A receptor; alpha-1/beta-2/gamma-2 (Rattus norvegicus, UniProt P18508+P62813+P63138). Kind of assay: Inhibition of rat GABA alpha-1-beta-2-gamma-2 receptor. The assay is classed as protein-complex assay.
GABA-A receptor; alpha-1/beta-2/gamma-2, sequence (P18508 whole entry): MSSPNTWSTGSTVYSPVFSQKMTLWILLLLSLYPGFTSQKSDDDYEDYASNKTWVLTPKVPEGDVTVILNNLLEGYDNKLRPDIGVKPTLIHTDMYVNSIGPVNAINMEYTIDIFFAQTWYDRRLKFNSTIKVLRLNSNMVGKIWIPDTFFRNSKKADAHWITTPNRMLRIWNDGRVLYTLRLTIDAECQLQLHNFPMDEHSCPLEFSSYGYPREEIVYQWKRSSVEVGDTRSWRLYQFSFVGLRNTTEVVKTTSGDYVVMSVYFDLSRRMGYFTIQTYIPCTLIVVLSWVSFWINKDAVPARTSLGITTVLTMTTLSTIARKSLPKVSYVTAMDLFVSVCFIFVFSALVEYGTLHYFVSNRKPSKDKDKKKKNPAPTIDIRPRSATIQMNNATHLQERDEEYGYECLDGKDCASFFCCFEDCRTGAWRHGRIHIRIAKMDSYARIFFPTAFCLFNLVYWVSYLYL
GABA-A receptor; alpha-1/beta-2/gamma-2, sequence (P62813 whole entry): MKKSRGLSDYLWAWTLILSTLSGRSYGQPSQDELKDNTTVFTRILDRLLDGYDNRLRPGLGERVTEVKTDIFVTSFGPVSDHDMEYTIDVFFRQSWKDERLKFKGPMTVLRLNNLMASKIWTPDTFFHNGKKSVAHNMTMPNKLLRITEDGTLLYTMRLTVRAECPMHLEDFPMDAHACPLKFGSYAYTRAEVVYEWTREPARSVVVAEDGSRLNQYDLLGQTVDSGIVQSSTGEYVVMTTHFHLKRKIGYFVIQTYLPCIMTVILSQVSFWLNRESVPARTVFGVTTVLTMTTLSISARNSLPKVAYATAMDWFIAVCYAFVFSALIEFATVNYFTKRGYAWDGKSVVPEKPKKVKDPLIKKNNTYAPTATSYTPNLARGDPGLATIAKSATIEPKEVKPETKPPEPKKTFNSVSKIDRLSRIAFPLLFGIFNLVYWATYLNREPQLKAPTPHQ
GABA-A receptor; alpha-1/beta-2/gamma-2, sequence (P63138 whole entry): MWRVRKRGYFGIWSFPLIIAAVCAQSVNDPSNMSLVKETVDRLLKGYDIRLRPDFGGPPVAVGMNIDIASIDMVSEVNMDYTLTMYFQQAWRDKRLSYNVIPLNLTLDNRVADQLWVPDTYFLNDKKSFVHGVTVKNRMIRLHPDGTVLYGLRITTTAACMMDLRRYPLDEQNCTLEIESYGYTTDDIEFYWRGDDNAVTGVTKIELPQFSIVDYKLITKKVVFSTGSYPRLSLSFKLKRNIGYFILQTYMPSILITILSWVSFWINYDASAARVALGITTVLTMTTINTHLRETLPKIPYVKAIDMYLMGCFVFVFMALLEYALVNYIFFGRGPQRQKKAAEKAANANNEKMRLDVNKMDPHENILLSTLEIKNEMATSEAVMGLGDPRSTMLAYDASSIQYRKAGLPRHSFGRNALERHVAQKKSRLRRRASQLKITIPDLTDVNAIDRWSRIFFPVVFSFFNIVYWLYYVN
`NC(=O)/C(=C\Nc1ccc(Cl)cc1)C(=O)c1ccccc1Cl` had an IC50 of 1700 nM. In other words, the single-digit micromolar range.

Regarding `CNC(=O)/C(=C\Nc1ccc(Cl)cc1)C(=O)c1ccccc1Cl`, inhibition was half-maximal at 158 nM (IC50).

In the case of `CCC(CC)NC(=O)/C(=C\Nc1ccc(Cl)cc1)C(=O)c1ccccc1Cl`, the IC50 was 79.4 nM. This IC50 lies about 2-fold lower than the previous one.

With `CCNC(=O)/C(=C\Nc1ccc(Cl)cc1)C(=O)c1ccccc1Cl`, the IC50 was 50.1 nM. Against the preceding compound, the IC50 is about 1.6-fold lower.

On to `CC(C)NC(=O)/C(=C\Nc1ccc(Cl)cc1)C(=O)c1ccccc1Cl`, for which inhibition was half-maximal at 39.8 nM (IC50).

As to `O=C(NC1CC1)/C(=C\Nc1ccc(Cl)cc1)C(=O)c1ccccc1Cl`, the IC50 was 30.2 nM.

On to `O=C(NC1CCCC1)/C(=C\Nc1ccc(Cl)cc1)C(=O)c1ccccc1Cl`, for which the IC50 is 30.2 nM.

The compound `CC(C)(C)NC(=O)/C(=C\Nc1ccc(Cl)cc1)C(=O)c1ccccc1Cl` gave a half-inhibitory concentration (IC50) of 3020 nM. This IC50 lies about 100-fold higher than the previous one.

Take `CC(C)C(C)NC(=O)/C(=C\Nc1ccc(Cl)cc1)C(=O)c1ccccc1Cl` (configuration not stated): the IC50 was 398 nM.

In turn, `CCC(C)NC(=O)/C(=C\Nc1ccc(Cl)cc1)C(=O)c1ccccc1Cl` (configuration not stated) showed an IC50 of 20 nM.

Turning to `O=C(NC1CCC1)/C(=C\Nc1ccc(Cl)cc1)C(=O)c1ccccc1Cl`, 7.08 nM corresponded to half-maximal inhibition (IC50).

In turn, `CCCNC(=O)/C(=C\Nc1ccc(Cl)cc1)C(=O)c1ccccc1Cl` had an IC50 of 44.7 nM.

As usually defined, the IC50 is the midpoint of a concentration-inhibition curve. Read a high IC50 as weaker potency.

(Values after ChEMBL document CHEMBL1240493, “Homology modeling and atomic level binding study of GABA(A) receptor with novel enaminone amides” (Eur J Med Chem, 2010).)
